Here are results for 15 compounds from patent US20230107216A1, “PANTETHEINE DERIVATIVES AND USES THEREOF” (Comet Therapeutics, Inc., priority 2018, published 2023).

Like-named read-outs stand apart in the source and are kept apart here.

Experiment [1] concerns Leigh Syndrome (LS) primary fibroblasts GM03672. Put plainly: NADP+/NADPH (NADP/NADPH-Glo), Leigh fibroblasts GM03672. The experiment is classed as cell-based. Particulars: Homo sapiens, Fibroblast, 24h, read-out: Increase in Total NADP+ + NADPH. The method, then:
Primary adherent fibroblasts were cultured in minimum essential medium (MEM) (Gibco, 25030081) supplemented with 2 mM L-Glutamine (Gibco, 25030081), 15% fetal bovine serum (FBS) (Gibco, 26400044) and 1% penicillin/streptomycin (Gibco, 5140122) at 37° C. and 5% CO2. Cells were collected for either passaging or experiment at ˜70-80% confluence. Cells were obtained by trypsinization and seeded in cell culture microplates either white plate (Thermo Fisher Scientific, 152028) for luminescent measurement or black plate (Thermo Fisher Scientific, 165305) for fluorescent based read out for different assays listed below. Cells were obtained by trypsinization and […] were seeded and allowed to adhere for 16-18 hours to have confluency around 70-80% in the cell well with culture media. After 24 hours prior to measurements (37° C., 5% CO2) media was changed to Dulbecco's Modified Eagle Medium (DMEM, Agilent Seahorse cat #103575-100) with the appropriate supplements as stated below.
Primary fibroblasts assayed were Propionic Acidemia (PA) (GM03590 Coriell Institute for Medical Research, Tsi 6337 Trans-Hit Bio), Methylmalonic Acidemia (MMA) (Tsi 5224 Trans-Hit Bio), Subnormal activation of pyruvate dehydrogenase complex (PDH) (GM01503 Coriell Institute for Medical Research), Very long-chain acyl-CoA dehydrogenase (VLCAD) (GM17475), Leigh Syndrome (LS) (GM03672, GM13411 Coriell Institute for Medical Research), Pyruvate Carboxylase Deficiency (PC) (GM00444 Coriell Institute for Medical Research). 10 μM of Compounds were added for 2 hours in PA, MMA lines and for 24h for the other fibroblast lines.
Assay was performed according to manufacturer instructions (NADP+/NADPH-Glo Assay Promega, G9082). Assay required a plate for total measurement of NADP+/NADPH and a plate for individual measurement of NADP+ or NADPH. For every assay a 12-point standard curve is prepared ranging from 400 nM to 0.625 nM. Media is removed and replaced with 50 μl of PBS for both assays.
For individual NADP+/NADPH measurements, 50 μl of 1% DTAB (Sigma, D5047) (cell lysis reagent) in 0.2N NaOH was added to the plates and 100 μl of lysate was split into two plates with 50 μl each from which ratio of NADP/NADPH can be calculated. 25 μl of 0.4N HCl were added to the NADP+ plates and both NADP+ and NADPH plates were heated at 60° C. for 15 minutes. The acid and heat treatment destroyed NADPH allowing individual NADP+ measurements while heating in basic conditions destroys NADP+ allowing individual NADPH measurement. After 15 minutes plates were allowed to come to room temperature and Trizma base (Sigma, T1699) was added to the NADP+ plates to neutralize the acid and HCl Trizma hydrochloride (Sigma, T2694) was added to the NADPH plates. The NADNADPH glo reagent was prepared by adding 125 μl of NAD cycling substrate, 125 μl of reductase, 125 μl of reductase substrate, 125 μl NAD cycling enzyme to a total of the 25 ml of NAD GLO reagent. 1:1 ratio of total volume of reagent was added to the individual NADP+, NADPH measurements (total 100 μl) and 50 μl were added for the total NAD/NADPH measurements. Luminescence was measured for 30-60 minutes within the linear range.
A total dead cell count was performed as described in Example 817 and only alive cells were used for analysis.

The test system of experiment [2] is Coronary artery smooth muscle cells (CASM3C system). Put plainly: BioMAP CASM3C system (IL-1β, TNFα, IFNγ). The settings on record: for inhibition at 10 µM: Homo sapiens, 24 h, read-out: % decrease in Thrombomodulin. Type of experiment: cell-based, human.
In experiment [3] the test system is Keratinocytes co-cultured with dermal fibroblast (KF3CT system). Description: BioMAP KF3CT system (IL-1β, TNFα, IFNγ, TGFβ). The experiment is classed as cell-based, human. The settings on record: for % increase in MCP-1: procedure of Example 834. As to the method: The BioMAP platform (BioMAP® Diversity PLUS® Panel from Eurofins) is an in vitro phenotypic profiling technology that screened the compounds of the present disclosure (hereafter indicated as test agents) in human primary cell-based systems modelling complex tissue and disease states. The BioMAP assays were performed using the Eurofin's BioMAP Technology Platform as (see references 1 to 13 in the example 824 section) to model different diseases on primary cell-based model systems. These systems consisted of either single primary cell types or co-culture cells. Adherent cell types were cultured or co-cultured in 96 or 384-well plates until confluence followed by the addition of compounds prepared in DMSO at a final concentration of ≤0.1%. In each cell-based system, primary cells from heathy donors (2-6 donors) were pooled and treated with compounds at 1 and 10 μM dose 1h prior to stimulation and remain in culture as indicated in Example 825, Example 826, Example 827, Example 828, Example 829, Example 830, Example 831, Example 832, Example 833, Example 834, Example 835, Example 836 and Example 837. For on the BioMAP® Diversity PLUS® Panel, please see the following references, which are incorporate herein.
Following the general procedure as described in Example 824, Keratinocytes were co-cultured with dermal fibroblast (KF3CT system) and treated with IL-1β, TNFα, IFNγ and TGFβ for 24h in the presence or absence of the compounds to model psoriasis, dermatitis and skin biology. Biomarkers read out were; MCP-1, ICAM-1, IP-10, IL-8, MIG, IL-1α, MMP-9, PAI-1, SRB, TIMP-2, uPA.

Where [4] appears, read: Leigh GM03672 P8, assay condition B (1 mM glucose, 2 mM L-glutamine, 1 mM pyruvate, 10% FBS).
Setting [5] is: Leigh GM03672 P9, assay condition A (10 mM glucose, 2 mM L-glutamine, 1 mM pyruvate, 10% FBS).
Where [6] appears, read: 10 uM, procedure of Example 832.

For `C[C@H](O)CC(=O)CC(=O)SCCNC(=O)CCNC(=O)[C@H](O)C(C)(C)CO` [Compound 1306, (2R)-2,4-dihydroxy-N-[2-[(2-[[(5S)-5-hydroxy-3-oxohexanoyl]sulfanyl]ethyl)carbamoyl]ethyl]-3,3-dimethylbutanamide], the activation at 10 µM in experiment [1] (setting [4]) was at least 10%.

In the case of `COC(=O)CCC(=O)SCCNC(=O)CCNC(=O)[C@H](OC(=O)CNC(C)=O)C(C)(C)CO` [Compound 1298, methyl 4-[(2-[3-[(2R)-2-[(2-acetamidoacetyl)oxy]-4-hydroxy-3,3-dimethylbutanamido]propanamido]ethyl)sulfanyl]-4-oxobutanoate], the activation at 10 µM in experiment [1] (setting [5]) was at least 10%. Besides, the “% decrease in uPAR” value in experiment [2] (1 uM) is on record as at least 10%. In experiment [2] (1 uM, procedure of Example 832), the “% decrease in LDLR” value is given as at least 10% and the “% decrease in VCAM-1” value is at least 10%. The “% increase in Proliferation” value in experiment [2] (setting [6]) is recorded as at least 10%. For the same compound, the inhibition at 10 µM in experiment [2] (10 uM) was at least 20%.

Take `C[C@@H](O)CC(=O)CC(=O)SCCNC(=O)CCNC(=O)[C@H](O)C(C)(C)CO` [Compound 42, (2R)-2,4-dihydroxy-N-[2-[(2-[[(5R)-5-hydroxy-3-oxohexanoyl]sulfanyl]ethyl)carbamoyl]ethyl]-3,3-dimethylbutanamide]: in experiment [2] (setting [6]), the “% increase in M-CSF” value is at least 10% and the “% increase in Proliferation” value was at least 10%. Further, the “% increase in MCP-1” value in experiment [3] (10 uM) is at least 10%.

On to `COC(=O)CC(C(C)=O)C(=O)SCCNC(=O)CCNC(=O)[C@H](O)C(C)(C)CO` (stereo partly drawn) [Compound 410], for which the activation at 10 µM in experiment [1] (setting [4]) is at least 10%.

As for `CC(C)(CO)[C@@H](O)C(=O)NCCC(=O)NCCSC(=O)[C@@H](N)Cc1ccc(O)c(O)c1` [Compound 371, (2R)—N-[2-[(2-[[(2S)-2-amino-3-(3,4-dihydroxyphenyl)propanoyl]sulfanyl]ethyl)carbamoyl]ethyl]-2,4-dihydroxy-3,3-dimethylbutanamide], in experiment [3] (1 uM), the “% increase in MMP-9” value was at least 10% and the “% increase in MCP-1” value is at least 10%.

Turning to `CC(C)(COC(=O)OCC[N+](C)(C)C)[C@@H](O)C(=O)NCCC(=O)NCCSC(=O)CCC(=O)O` [Compound 116, [2-([[(3R)-3-[[2-([2-[(3-carboxypropanoyl)sulfanyl]ethyl]carbamoyl)ethyl]carbamoyl]-3-hydroxy-2,2-dimethylpropoxy]carbonyl]oxy)ethyl]trimethylazanium], in experiment [2] (1 uM, procedure of Example 832), the “% decrease in Proliferation” value is at least 10%.

For `CCCCCCC(=O)SCCNC(=O)CCNC(=O)[C@H](O)C(C)(C)CO` [Compound 372, (2R)—N-(2-[[2-(heptanoylsulfanyl)ethyl]carbamoyl]ethyl)-2,4-dihydroxy-3,3-dimethylbutanamide], in experiment [2] (1 uM, procedure of Example 832), the “% decrease in LDLR” value was at least 10% and the “% decrease in VCAM-1” value is at least 10%. Besides, the inhibition at 10 µM in experiment [2] (10 uM) is at least 10%.

Consider `COC(=O)CCC(=O)SCCNC(=O)CCNC(=O)[C@H](O)C(C)(C)COC(C)=O` [Compound 138], for which the inhibition at 10 µM in experiment [2] (10 uM) is at least 10%. Moreover, in experiment [3] (10 uM), the “% increase in SRB” value was at least 10%.

Take `CC(=O)SCCNC(=O)CCNC(=O)[C@H](O)C(C)(C)COC(=O)[C@@H](N)Cc1ccc(O)c(O)c1` [Compound 498, (3R)-3-[(2-[[2-(acetylsulfanyl)ethyl]carbamoyl]ethyl)carbamoyl]-3-hydroxy-2,2-dimethylpropyl (2S)-2-amino-3-(3,4-dihydroxyphenyl)propanoate]: the “% increase in IL-6” value in experiment [2] (1 uM, procedure of Example 832) is on record as at least 10%. Further, the “% increase in MCP-1” value in experiment [3] (1 uM) is at least 10%. Further, the “% increase in TIMP-2” value in experiment [3] (10 uM) is recorded as at least 10%.

With `COC(=O)CCC(=O)SCCNC(=O)CCNC(=O)[C@H](OC(=O)CN)C(C)(C)CO` [Compound 1294, methyl 4-[(2-[3-[(2R)-2-[(2-aminoacetyl)oxy]-4-hydroxy-3,3-dimethylbutanamido]propanamido]ethyl)sulfanyl]-4-oxobutanoate], the activation at 10 µM in experiment [1] (setting [5]) is at least 10%. Besides, in experiment [2] (1 uM), the “% decrease in Tissue Factor” value was at least 10% and the “% decrease in uPAR” value is given as at least 10%. In addition, in experiment [2] (1 uM, procedure of Example 832), the “% decrease in M-CSF” value is reported as at least 10% and the “% decrease in VCAM-1” value was at least 10%. Also, in experiment [2] (10 uM), the “% decrease in HLA-DR” value was at least 10% and the inhibition at 10 µM is at least 20%. In addition, the “% decrease in MMP-9” value in experiment [3] (1 uM) is recorded as at least 10%. The “% increase in IL-1α” value in experiment [3] (10 uM) is recorded as at least 10%.

For `CC(=O)SCCNC(=O)CCNC(=O)[C@H](O)C(C)(C)COC(=O)[C@H](C)N` [Compound 502, (3R)-3-[(2-[[2-(acetylsulfanyl)ethyl]carbamoyl]ethyl)carbamoyl]-3-hydroxy-2,2-dimethylpropyl (2S)-2-aminopropanoate], in experiment [2] (10 uM), the inhibition at 10 µM was at least 10%.

Regarding `COC(=O)CC(SCCNC(=O)CCNC(=O)[C@H](O)C(C)(C)COC(C)=O)C(=O)OC` (stereo partly drawn) [Compound 149, 1,4-dimethyl 2-[(2-[3-[(2R)-4-(acetyloxy)-2-hydroxy-3,3-dimethylbutanamido]propanamido]ethyl)sulfanyl]butanedioate], in experiment [2] (setting [6]), the “% increase in IL-6” value is listed as at least 10%. The inhibition at 10 µM in experiment [2] (10 uM) is at least 10%.

With `CC(=O)OCC(C)(C)[C@@H](OC(C)=O)C(=O)NCCC(=O)NCCSC(C)=O` [Compound 1264, (1R)-3-(acetyloxy)-1-[(2-[[2-(acetylsulfanyl)ethyl]carbamoyl]ethyl)carbamoyl]-2,2-dimethylpropyl acetate], the “% increase in IL-6” value in experiment [2] (1 uM, procedure of Example 832) was at least 10%. Moreover, in experiment [3] (1 uM), the “% decrease in IL-1a” value is on record as at least 10% and the “% increase in MCP-1” value was at least 10%.

As to `CC(=O)OCC(C)(C)[C@@H](O)C(=O)NCCC(=O)NCCSC(=O)CC(=O)CCC(=O)O` [Compound 140, 6-[(2-[3-[(2R)-4-(acetyloxy)-2-hydroxy-3,3-dimethylbutanamido]propanamido]ethyl)sulfanyl]-4,6-dioxohexanoic acid], the activation at 10 µM in experiment [1] (setting [4]) is at least 10%.

As to `CC(C)(CO)[C@@H](O)C(=O)NCCC(=O)NCCSC(=O)CC(=O)CCC(=O)O` [Compound 2, 6-[(2-[3-[(2R)-2,4-dihydroxy-3,3-dimethylbutanamido]propanamido]ethyl)sulfanyl]-4,6-dioxohexanoic acid], the activation at 10 µM in experiment [1] (setting [4]) is at least 10%.
